Data: patent publication US8263642B2, “Antimicrobial compounds and methods of use thereof” (Vanderbilt University, priority 2008, dated 2012)

Assays:
[1] = system: hrtAB-driven expression of the xylE reporter gene; experiment: XylE reporter assay (hrtAB promoter-xylE), Newman; type: cell-based, Staphylococcus aureus; conditions: for XylE (0.05): level of XylE induction at 0.05 uM of the compound; for XylE (0.5): level of XylE induction at 0.5 uM of the compound; for XylE (5.0): level of XylE induction at 5.0 uM of the compound; for XylE (50.0): level of XylE induction at 50.0 uM of the compound
Procedure, shortened: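 S. aureus carrying hrtAB promoter-xylE fusion in pOS1 grown O/N at 37° C in TSB with chloramphenicol, lysed with lysostaphin. Lysate XylE activity read as 2-hydroxymuconic semialdehyde formation from 0.2 mM pyrocatechol (A375, every minute for 30 minutes), normalised to BCA protein; unit = 1 nmol/min/mg at 30° C.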

[2] = system: response regulator HssR; experiment: HssR dependence of XylE inducing activity, Newman; type: cell-based, Staphylococcus aureus; conditions: whether XylE inducing activity requires HssR
Protocol: With reference to Table 1, “Luminescence” refers to the raw luminescence value obtained in a luminomter. “Control (82.5 nm)” refers to the luminescence value obtained from heme at 82.5 nM as a positive control in the same plate as the experimental. “% lum” is the percentage of luminescence induced by the compound as compared to the heme control in the same plate. […] All of these assays are described in the application. […] “N/T” indicates the test was not performed. […]
S. aureus strains harboring the appropriate reporter construct were inoculated into 500 μl of TSB containing 10 μg/ml chloramphenicol in 1.5 ml tubes. Cultures were grown O/N at 37° C. with shaking. Bacteria were pelleted by centrifugation and spent medium was aspirated. The pellet was washed once with 500 μl of 20 mM potassium phosphate, pH 7.6, and resuspended in 150 μl of 100 mM potassium phosphate buffer, pH 8.0, 10% (v/v) acetone, 25 μg/ml lysostaphin. After 20 minute incubation at 37° C. and 5 minute incubation on ice, samples were centrifuged at 20,000 g for 30 minutes at 4° C. 1-10 μl of supernatant was added to a 96-well plate and 200 μl of 100 mM potassium phosphate, pH 8.0, 0.2 mM pyrocatechol was added to each well. Formation of 2-hydroxymuconic semialdehyde was tracked by measuring the absorbance at 375 nm every minute for 30 minutes on a Varian MP 50 microplate reader. Protein concentration in samples was determined by BCA (Pierce). One unit of specific activity of XylE in a sample is defined as the formation of 1 nmol of 2-hydroxymuconic semialdehyde per minute per milligram of cellular protein at 30° C. (Chien, Y., Manna, A. C., Projan, S. J., and Cheung, A. L. 1999, “SarA, a global regulator of virulence determinants in Staphylococcus aureus, binds to a conserved motif essential for sar-dependent gene regulation. J. Biol. Chem. 274, 37169-37176).

SMILES | XylE (0.05) [1] | XylE (0.5) [1] | XylE (5.0) [1] | XylE (50.0) [1] | HssR Dep [2]
Cc1ccc(NS(=O)(=O)c2ccc3c(c2)Cc2cc(S(=O)(=O)Nc4ccc(C)cc4)ccc2-3)cc1 [drawing 74] | 1 | 1 | 15 | 14 | +
COc1ccc(-c2cc(-c3ccc(OC)cc3O)n[nH]2)cc1 | 0.06 | 0.02 | 0.7 | 4 | +
O=C(N/N=C/c1ccc(-c2cccc(C(F)(F)F)c2)o1)C1COc2ccccc2O1 (stereo not shown) [drawing 49] | 0.07 | 0 | 0.6 | 0.09 | +
CC(NC(=O)C1(c2ccccc2)CCCC1)C1COc2ccccc2O1 (stereo not shown) [drawing 45] | 0.04 | 0.1 | 0.7 | 0.05 | +
COc1ccccc1NC1=C/C(=N\S(=O)(=O)c2ccc(Br)cc2)c2ccccc2C1=O [drawing 81] | 1 | 1 | 1 | 1 | +
Fc1ccc(CNC(=S)Nc2ccc(Oc3ccccc3)cc2)cc1 | 0.06 | 0.05 | 0.2 | 1 | +
CC(C)(C)c1ccc(O)c(NC(=S)NC(=O)c2cc3ccccc3o2)c1 | 0.09 | 0.8 | 0.9 | 1 | +
Oc1c(-c2cc(-c3ccco3)[nH]n2)ccc2ccccc12 [drawing 65] | 0.4 | 0.07 | 12 | 5 | +
COc1ccc(Br)cc1C(=O)NC(=S)Nc1cc(C)c(C)cc1O [drawing 63] | 0.08 | 0.8 | 0.9 | 2 | +
COc1ccc(C(=O)Nc2sc(-c3ccccc3)cc2C(N)=O)cc1 | 0.07 | 0.09 | 4 | 6 | +
COc1ccc(-c2cc(-c3ccc(C)cc3)[nH]n2)c(O)c1 | 0.08 | 0.02 | 0.07 | 0.09 | +
O=C(N/N=C/c1ccc(-c2ccc(Br)cc2)o1)C1COc2ccccc2O1 (stereo not shown) [drawing 48] | 0.02 | 0.08 | 0.7 | 0.2 | +
CC(NC(=O)C1(c2ccccc2)CCCC1)C1COc2ccccc2O1 (stereo not shown) [drawing 26] | 0.06 | 0.05 | 0.7 | 200 | +
Cc1cccc(C(=O)Nc2ccc(-c3nc4ccccc4o3)cc2)c1 [drawing 43] | 0.09 | 0.7 | 1 | 0.09 | +
Oc1c(-c2cc(-c3ccco3)[nH]n2)ccc2ccccc12 [drawing 25] | 0.07 | 0.06 | 0.2 | 1000 | +
CCCN1C(=O)/C(=C2/C(=O)N(CC(=O)Nc3ccc(Cl)cc3)c3ccccc32)SC1=S [drawing 67] | 0.02 | 0.04 | 0.05 | 1 | +
Cc1ccc(O)c(NC(=O)c2nn3c(c2Br)NC(c2ccco2)CC3C(F)(F)F)c1 (stereo not shown) [drawing 29] | 0.05 | 0.06 | 5 | 3 | +
